Like-named read-outs stand apart in the source and are kept apart here.
Experiments:
Assay in all cases: Greenhouse test, pre-emergence treatment
[1] = test system: COMBE; type: in vivo, Commelina benghalensis; settings: Commelina benghalensis, pre-emergence, 480 h
From the text: (§1) The culture containers used were plastic flowerpots containing loamy sand with approximately 3.0% of humus as the substrate. The seeds of the test plants were sown separately for each species.
(§2) For the pre-emergence treatment, the active ingredients, which had been suspended or emulsified in water, were applied directly after sowing by means of finely distributing nozzles. The containers were irrigated gently to promote germination and growth and subsequently covered with transparent plastic hoods until the plants had rooted. This cover caused uniform germination of the test plants, unless this had been impaired by the active ingredients.
(§3) Depending on the species, the plants were kept at 10-25° C. or 20-35° C., respectively.
(§4) The test period extended over 2 to 4 weeks. During this time, the plants were tended, and their response to the individual treatments was evaluated.
(§5) Evaluation was carried out using a scale from 0 to 100. 100 means no emergence of the plants, or complete destruction of at least the aerial moieties, and 0 means no damage, or normal course of growth. A moderate herbicidal activity is given at values of at least 60, a good herbicidal activity is given at values of at least 70, and a very good herbicidal activity is given at values of at least 85.
(§6) The respective stated components a and b, and if appropriate, c were formulated as a 10% by weight strength emulsion concentrate and, with addition of the amount of solvent system, introduced into the spray liquor used for applying the active compound.
(§7) In the examples, the solvent used was water.
(§8) In the examples below, using the method of S. R. Colby (1967) “Calculating synergistic and antagonistic responses of herbicide combinations”, Weeds 15, p. 22ff., the value E, which is expected if the activity of the individual active compounds is only additive, was calculated. E=X+Y−(X·Y/100) where • X=percent activity using active compound a at an application rate A; • Y=percent activity using active compound b at an application rate B; • E=expected activity (in %) by a+b at application rates A+B.
(§9) If the value found experimentally is higher than the value E calculated according to Colby, a synergistic effect is present.

[2] = test system: CENCY; type: in vivo; settings: 480 h, individual, read-out: observed % activity 20 DAT
[3] = test system: KCHSC; type: in vivo, Kochia scoparia; settings: Bassia scoparia, pre-emergence, 480 h
From the text: as §1, §2, §3, §4, §5, §6, §7, §8, §9

[4] = test system: ABUTH; type: in vivo, Abutilon theophrasti; settings: Abutilon theophrasti, 480 h
From the text: as §1, §2, §3, §4, §5, §6, §7, §8, §9

[5] = test system: ANTAR; type: in vivo; settings: Anthemis arvensis, 480 h, 20 DAT, read-out: observed % activity
From the text: as §1, §2, §3, §4, §5, §6, §7, §8, §9

[6] = test system: GALAP; type: in vivo, Galium aparine; settings: Galium aparine, pre-emergence, 480 h
From the text: as §1, §2, §3, §4, §5, §6, §7, §8, §9

[7] = test system: POLCO; type: in vivo, Polygonum convolvulus; settings: Fallopia convolvulus, pre-emergence, 480 h
From the text: as §1, §2, §3, §4, §5, §6, §7, §8, §9

[8] = test system: SIDRH; type: in vivo, Sida rhombifolia; settings: Sida rhombifolia, pre-emergence, 480 h, 20 DAT, read-out: observed % activity
From the text: as §1, §2, §3, §4, §5, §6, §7, §8, §9

[9] = test system: IPOHE; type: in vivo, Ipomoea hederacea; settings: Ipomoea hederacea, 480 h
From the text: as §1, §2, §3, §4, §5, §6, §7, §8, §9

[10] = test system: EPHHL; type: in vivo, Euphorbia heterophylla; settings: Euphorbia heterophylla, pre-emergence, 480 h
From the text: as §1, §2, §3, §4, §5, §6, §7, §8, §9

[11] = test system: GERPU; type: in vivo, Geranium pusillum; settings: Geranium pusillum, pre-emergence, 480 h
From the text: as §1, §2, §3, §4, §5, §6, §7, §8, §9

[12] = 250 g ai/ha, 20 DAT, read-out: observed % activity
[13] = 500 g ai/ha, 20 DAT, read-out: observed % activity
[14] = 25 g ai/ha, 20 DAT, read-out: observed % activity
[15] = 50 g ai/ha, 20 DAT, read-out: observed % activity

Cc1ccc(NC(=O)N(C)C)cc1Cl [chlorotoluron]
inhibition at 250 g/ha [1, 12]: 20%
inhibition at 125 g/ha ([1]; COMBE, individual, use rate 125 g ai/ha, read-out: observed % activity 20 DAT): 0%
inhibition at 250 g/ha ([1]; COMBE, individual, use rate 250 g ai/ha, read-out: observed % activity 20 DAT): 0%
inhibition at 125 g/ha ([2]; use rate 125 g ai/ha): 20%
inhibition at 250 g/ha ([2]; use rate 250 g ai/ha): 0%
inhibition at 250 g/ha [3, 12]: 20%
inhibition at 500 g/ha [3, 13]: 50%
inhibition at 125 g/ha ([3]; KCHSC, individual, use rate 125 g ai/ha, read-out: observed % activity 20 DAT): 15%
inhibition at 250 g/ha [4, 12]: 0%
inhibition at 500 g/ha [4, 13]: 0%
inhibition at 125 g/ha ([4]; ABUTH, individual, use rate 125 g ai/ha, read-out: observed % activity 20 DAT): 0%
inhibition at 250 g/ha ([4]; ABUTH, individual, use rate 250 g ai/ha, read-out: observed % activity 20 DAT): 0%
inhibition at 250 g/ha ([5]; 250 g ai/ha): 45%
inhibition at 500 g/ha ([5]; 500 g ai/ha): 45%
inhibition at 500 g/ha [6, 13]: 50%
inhibition at 125 g/ha ([6]; GALAP, individual, use rate 125 g ai/ha, read-out: observed % activity 20 DAT): 25%
inhibition at 250 g/ha ([6]; GALAP, individual, use rate 250 g ai/ha, read-out: observed % activity 20 DAT): 30%
inhibition at 250 g/ha [7, 12]: 0%
inhibition at 500 g/ha [7, 13]: 20%
inhibition at 250 g/ha ([7]; POLCO, individual, use rate 250 g ai/ha, read-out: observed % activity 20 DAT): 0%
inhibition at 250 g/ha ([8]; 250 g ai/ha): 0%
inhibition at 500 g/ha ([8]; 500 g ai/ha): 0%
inhibition at 500 g/ha [9, 13]: 0%
inhibition at 250 g/ha ([9]; IPOHE, individual, use rate 250 g ai/ha, read-out: observed % activity 20 DAT): 0%
inhibition at 250 g/ha [10, 12]: 0%
inhibition at 250 g/ha ([10]; EPHHL, individual, use rate 250 g ai/ha, read-out: observed % activity 20 DAT): 15%
inhibition at 250 g/ha [11, 12]: 25%
inhibition at 500 g/ha [11, 13]: 20%
inhibition at 125 g/ha ([11]; GERPU, individual, use rate 125 g ai/ha, read-out: observed % activity 20 DAT): 25%
inhibition at 250 g/ha ([11]; GERPU, individual, use rate 250 g ai/ha, read-out: observed % activity 20 DAT): 25%

CS(=O)(=O)c1cc(C(F)(F)F)ccc1C(=O)c1cnoc1C1CC1 [isoxaflutole]
inhibition at 25 g/ha [1, 14]: 85%
inhibition at 50 g/ha [1, 15]: 80%
inhibition at 50 g/ha ([1]; COMBE, individual, use rate 50 g ai/ha, read-out: observed % activity 20 DAT): 45%
inhibition at 25 g/ha ([2]; use rate 25 g ai/ha): 20%
inhibition at 50 g/ha ([2]; use rate 50 g ai/ha): 60%
inhibition at 25 g/ha [3, 14]: 98%
inhibition at 50 g/ha [3, 15]: 98%
inhibition at 25 g/ha ([3]; KCHSC, individual, use rate 25 g ai/ha, read-out: observed % activity 20 DAT): 98%
inhibition at 50 g/ha ([3]; KCHSC, individual, use rate 50 g ai/ha, read-out: observed % activity 20 DAT): 98%
inhibition at 25 g/ha [4, 14]: 98%
inhibition at 50 g/ha ([4]; ABUTH, individual, use rate 50 g ai/ha, read-out: observed % activity 20 DAT): 95%
inhibition at 25 g/ha ([5]; 25 g ai/ha): 95%
inhibition at 50 g/ha ([5]; 50 g ai/ha): 98%
inhibition at 25 g/ha [6, 14]: 40%
inhibition at 25 g/ha ([6]; GALAP, individual, use rate 25 g ai/ha, read-out: observed % activity 20 DAT): 40%
inhibition at 50 g/ha ([6]; GALAP, individual, use rate 50 g ai/ha, read-out: observed % activity 20 DAT): 70%
inhibition at 25 g/ha [7, 14]: 0%
inhibition at 50 g/ha [7, 15]: 30%
inhibition at 25 g/ha ([7]; POLCO, individual, use rate 25 g ai/ha, read-out: observed % activity 20 DAT): 0%
inhibition at 50 g/ha ([7]; POLCO, individual, use rate 50 g ai/ha, read-out: observed % activity 20 DAT): 0%
inhibition at 25 g/ha ([8]; 25 g ai/ha): 90%
inhibition at 50 g/ha ([8]; 50 g ai/ha): 98%
inhibition at 50 g/ha ([9]; IPOHE, individual, use rate 50 g ai/ha, read-out: observed % activity 20 DAT): 35%
inhibition at 25 g/ha [10, 14]: 85%
inhibition at 50 g/ha [10, 15]: 85%
inhibition at 25 g/ha ([10]; EPHHL, individual, use rate 25 g ai/ha, read-out: observed % activity 20 DAT): 65%
inhibition at 50 g/ha ([10]; EPHHL, individual, use rate 50 g ai/ha, read-out: observed % activity 20 DAT): 70%
inhibition at 25 g/ha [11, 14]: 0%
inhibition at 50 g/ha [11, 15]: 45%
inhibition at 25 g/ha ([11]; GERPU, individual, use rate 25 g ai/ha, read-out: observed % activity 20 DAT): 70%
inhibition at 50 g/ha ([11]; GERPU, individual, use rate 50 g ai/ha, read-out: observed % activity 20 DAT): 50%

From patent US9999222B2, “Herbicidal combination comprising azines” (BASF SE, priority 2014, dated 2018)
